Assay results taken from patent US20060252733A1, “Betulin, betulin derivatives, betulinic acid and betulinic acid derivatives as novel therapeutics in the treatment of disease of lipid and/or glucose metabolism” (Novelix Pharmaceuticals, Inc., priority 2005, published 2006).
In brackets after ≈: the same amount, converted by molar mass. Several values for one entry are separate records, joined by “and”; a condition that tells them apart may be missing. Identical values can stand only once.

Tests used:
[1] = test system: human lung cancer cell line (A549); experiment: Global gene expression analysis (Affymetrix gene chips) after NVX-207 treatment; type: cell-based
Procedure: For global gene expression analysis, total RNA was isolated from sub-confluent cell cultures at 4 and 14 hours after addition of NVX-207. […] For each time point and concentration, respectively, total RNA form 3 equally treated cultures was pooled and used for gene chip analysis. The experiment was repeated once. Four and 14 hours after addition of NVX-207, cells were washed with PBS and lysed directly in the culture dish with RNA-Bee according to the manufacturers instructions. Total RNA was then analyzed by using Affymetrix gene chips according to the manufacturers instructions.

[2] = test system: human lung cancer cell line (A549); experiment: NVX-207 IC50/IC80 concentrations in A549 cell cultures; type: cell-based; settings: A549 cells

SMILES: C=C(C)[C@@H]1CC[C@]2(C(=O)OCC(N)(CO)CO)CC[C@]3(C)[C@H](CC[C@@H]4[C@@]5(C)CC[C@H](OC(C)=O)C(C)(C)[C@@H]5CC[C@]43C)[C@@H]12 [NVX-207]
- expression of the Table 1 genes with a functional role in lipid and/or glucose metabolism ([1]; 20 listed genes incl. LDL receptor, Insulin induced gene 1, 3-hydroxy-3-methylglutaryl-Coenzyme A reductase): NVX-207-Upregulated Genes with a Functional Role in Lipid
- Fold-Induction ([1]; gene: 3-hydroxy-3-methylglutaryl-Coenzyme A synthase 1 (soluble)): 1.63
- Fold-Induction ([1]; gene: 24-dehydro-cholesterol reductase): 1.25
- Fold-Induction ([1]; gene: 216814_at): 0.86
- Fold-Induction ([1]; gene: ALEX3 protein): 1.20
- Fold-Induction ([1]; gene: ATP synthase, H+ transporting, mitochondrial F0 complex, subunit s (factor B)): 0.87
- Fold-Induction ([1]; gene: Acetyl-Coenzyme A acetyltransferase 2 (acetoacetyl Coenzyme A thiolase)): 1.44
- Fold-Induction ([1]; gene: Adenylate cyclase 9): 1.50
- Fold-Induction ([1]; gene: Ankyrin repeat domain 6): 1.48
- Fold-Induction ([1]; gene: Apoptosis inhibitor 5): 1.21
- Fold-Induction ([1]; gene: Choline kinase): 1.16
- Fold-Induction ([1]; gene: Chromosome 22 open reading frame 20): 1.56
- Fold-Induction ([1]; gene: Cyclic nucleotide gated channel alpha 1): 0.79
- Fold-Induction ([1]; gene: D15F37 (pseudogene)): 1.39
- Fold-Induction ([1]; gene: DEAD (Asp-Glu-Ala-Asp) box polypeptide 54): 0.66
- Fold-Induction ([1]; gene: Exportin 6): 0.89
- Fold-Induction ([1]; gene: Farnesyl-diphosphate farnesyltransferase 1): 1.89
- Fold-Induction ([1]; gene: Fatty-acid-Coenzyme A ligase, long-chain 3): 1.31
- Fold-Induction ([1]; gene: Glyoxalase I): 1.12
- Fold-Induction ([1]; gene: H63 breast cancer expressed gene): 0.66
- Fold-Induction ([1]; gene: HMT1 hnRNP methyltransferase-like 1): 0.62
- Fold-Induction ([1]; gene: Haspin): 0.92
- Fold-Induction ([1]; gene: Heterogeneous nuclear ribonucleoprotein A2/B1): 1.30
- Fold-Induction ([1]; gene: Homeo box B2): 1.26
- Fold-Induction ([1]; gene: Homo sapiens cDNA FLJ11590 fis, clone HEMBA1003758.): 1.56
- Fold-Induction ([1]; gene: Homo sapiens cDNA FLJ12075 fis, clone HEMBB1002425.): 1.50
- Fold-Induction ([1]; gene: Homo sapiens cDNA FLJ12932 fis, clone NT2RP2004897.): 1.55
- Fold-Induction ([1]; gene: Homo sapiens cDNA FLJ13272 fis, clone OVARC1001004.): 1.58
- Fold-Induction ([1]; gene: Homo sapiens cDNA FLJ26120 fis, clone SYN00419): 2.26
- Fold-Induction ([1]; gene: Homo sapiens cDNA FLJ33420 fis, clone BRACE2020028.): 1.41
- Fold-Induction ([1]; gene: Homo sapiens cDNA FLJ46153 fis, clone TESTI4001037): 0.81
- Fold-Induction ([1]; gene: Homo sapiens cDNA: FLJ23159 fis, clone LNG09628): 1.44
- Fold-Induction ([1]; gene: Homo sapiens full length insert cDNA clone ZE03A06): 0.70
- Fold-Induction ([1]; gene: Homo sapiens mRNA, cDNA DKFZp586O031 (from clone DKFZp586O031)): 1.13
- Fold-Induction ([1]; gene: Homo sapiens mRNA, cDNA DKFZp686L01105 (from clone DKFZp686L01105)): 2.37 and 2.09 and 1.73
- Fold-Induction ([1]; gene: Homo sapiens mRNA, cDNA DKFZp779K0112 (from clone DKFZp779K0112)): 1.48
- Fold-Induction ([1]; gene: Homo sapiens transcribed sequence with weak similarity to protein ref: NP_060265.1): 1.46 and 1.22
- Fold-Induction ([1]; gene: Homo sapiens, clone IMAGE: 5314747, mRNA): 1.77
- Fold-Induction ([1]; gene: Homo sapiens, clone IMAGE: 6205812, mRNA): 1.85
- Fold-Induction ([1]; gene: Hypothetical protein BC008207): 0.86
- Fold-Induction ([1]; gene: Hypothetical protein DKFZp761A132): 0.70
- Fold-Induction ([1]; gene: Hypothetical protein FLB8034 PRO2158): 1.45
- Fold-Induction ([1]; gene: Hypothetical protein FLJ10997 (ZNF654 zinc finger protein 654 [Homo sapiens])): 1.16
- Fold-Induction ([1]; gene: Hypothetical protein FLJ11577): 1.35
- Fold-Induction ([1]; gene: Hypothetical protein FLJ13611): 1.39
- Fold-Induction ([1]; gene: Hypothetical protein FLJ14639): 1.24
- Fold-Induction ([1]; gene: Hypothetical protein FLJ38499): 1.32
- Fold-Induction ([1]; gene: Hypothetical protein LOC125893): 1.34
- Fold-Induction ([1]; gene: Hypothetical protein LOC126661): 1.49
- Fold-Induction ([1]; gene: Hypothetical protein LOC283680): 1.26
- Fold-Induction ([1]; gene: Hypothetical protein MAC30): 1.46
- Fold-Induction ([1]; gene: Hypothetical protein MGC34695): 1.61
- Fold-Induction ([1]; gene: Hypothetical protein PRO1496): 1.46
- Fold-Induction ([1]; gene: Insulin induced gene 1): 2.56
- Fold-Induction ([1]; gene: Isopentenyl-diphosphate delta isomerase): 1.78
- Fold-Induction ([1]; gene: Jerky homolog-like (mouse)): 1.23
- Fold-Induction ([1]; gene: KIAA0101 gene product): 1.23
- Fold-Induction ([1]; gene: KIAA0335 gene product): 1.38
- Fold-Induction ([1]; gene: KIAA1450 protein): 1.21
- Fold-Induction ([1]; gene: Latrophilin 3): 0.77
- Fold-Induction ([1]; gene: Lipin 1): 1.88
- Fold-Induction ([1]; gene: Low density lipoprotein receptor (familial hypercholesterolemia)): 1.78
- Fold-Induction ([1]; gene: Machado-Joseph disease (spinocerebellar ataxia 39)): 1.45
- Fold-Induction ([1]; gene: Melan-A): 0.60
- Fold-Induction ([1]; gene: Mitochondrial ribosomal protein L30): 1.42
- Fold-Induction ([1]; gene: Mucin 4, tracheobronchial): 0.79
- Fold-Induction ([1]; gene: Mucolipin 3): 1.39
- Fold-Induction ([1]; gene: Natural killer-tumor recognition sequence): 1.45 and 1.28
- Fold-Induction ([1]; gene: Neurolysin (metallopeptidase M3 family)): 1.41
- Fold-Induction ([1]; gene: Nicotinamide nucleotide adenylyltransferase 2): 0.73
- Fold-Induction ([1]; gene: Pantothenate kinase 3): 1.23
- Fold-Induction ([1]; gene: Phorbol-12-myristate-13-acetate-induced protein 1): 1.26
- Fold-Induction ([1]; gene: Phosphodiesterase 4A, cAMP-specific (phosphodiesterase E2 dunce homolog, Drosophila)): 0.78
- Fold-Induction ([1]; gene: Pinin, desmosome associated protein): 1.17
- Fold-Induction ([1]; gene: Protocadherin 11 Y-linked): 1.37
- Fold-Induction ([1]; gene: Putative translation initiation factor): 1.14
- Fold-Induction ([1]; gene: Pyruvate dehydrogenase phosphatase isoenzyme 2): 1.40
- Fold-Induction ([1]; gene: Receptor-interacting factor 1): 1.10
- Fold-Induction ([1]; gene: Ring finger protein 125 (T-cell RING activation protein 1, TRAC-1)): 3.36
- Fold-Induction ([1]; gene: SKI-interacting protein): 1.10
- Fold-Induction ([1]; gene: SOCS box-containing WD protein SWiP-1): 1.20
- Fold-Induction ([1]; gene: SP140 nuclear body protein): 0.78
- Fold-Induction ([1]; gene: SPTF-associated factor 65 gamma): 0.69
- Fold-Induction ([1]; gene: Solute carrier family 2 (facilitated glucose transporter), member 6): 1.76
- Fold-Induction ([1]; gene: Solute carrier family 7, (cationic amino acid transporter, y+ system) member 11): 1.67
- Fold-Induction ([1]; gene: Squalene epoxidase): 1.60
- Fold-Induction ([1]; gene: Stearoyl-CoA desaturase (delta-9-desaturase)): 1.41
- Fold-Induction ([1]; gene: Sterol-C4-methyl oxidase-like): 1.87
- Fold-Induction ([1]; gene: Sterol-C5-desaturase (ERG3 delta-5-desaturase homolog, fungal)-like): 1.37
- Fold-Induction ([1]; gene: Surfactant, pulmonary-associated protein B): 1.43
- Fold-Induction ([1]; gene: Syntaxin 16): 0.86
- Fold-Induction ([1]; gene: Thyroid hormone receptor interactor 11): 1.70
- Fold-Induction ([1]; gene: Tumor necrosis factor (ligand) superfamily, member 9): 1.47
- Fold-Induction ([1]; gene: Ubiquitin specific protease 6 (Tre-2 oncogene)): 1.38
- Fold-Induction ([1]; gene: Ubiquitin specific protease 32): 1.25
- Fold-Induction ([1]; gene: Zinc finger protein 226): 1.46
- Fold-Induction ([1]; gene: Zinc finger protein 430): 1.24
- upregulation of INSIG-1 ([1]; within 4 hours of the addition of NVX-207): up to 3 fold
- IC50 [2]: 1.5 µg/mL (≈ 2.49 µM)
- IC80 [2]: 2.0 µg/mL (≈ 3.32 µM)
